Measurements reported in patent US10357576B2, “18F-labelled folate/antifolate analogues” (MERCK & CIE, priority 2012, dated 2019).

Assays:
[1] = Log D7.4 determination, shake-flask method (n-octanol/PBS); format: physicochemical; conditions: n-octanol/PBS pH 7.4, room temperature, n=10
Protocol: Determination of the Log D: Determination of the log D value was performed, using the shake-flask-method, where the partition coefficient of the radiotracer between n-octanol and phosphate buffered saline (PBS) was determined (Wilson et al. 2001 Applied Radiation and Isotopes). n-Octanol (0.5 ml) and PBS (0.5 ml) were mixed in an Eppendorf tube containing the radioactive sample (5-10 μl). Tubes were shaken for 15 min at room temperature in an over-head shaker and afterwards centrifuged (3 min, 5000 rpm). From each Eppendorf tube, 50 μl of each phase were transferred into a vial for counting in a γ-counter. The log D value was calculated according to the following equation: log D7.4=log [activity(octanol phase)/activity PBS phase)].
For log D7.4 determination a phosphate buffer was prepared, making a solution of KH2PO4 (1.743 g, 12.81 mmol) and Na2HPO4.2H2O (9.596 g, 53.91 mmol) in water (1000 ml). A saturated solution of phosphate buffer in n-octanol and a saturated solution of n-octanol in phosphate buffer were prepared. The PBS solution (500 μl) and n-octanol solution (500 μl) were pipetted into an Eppendorf tube and the radiotracer (5-10 μl) was added. The Eppendorf tube was shaken for 15 min at room temperature in an over-head shaker. […] By calculating the logarithm of the ratio of the counts in the n-octanol and the PBS phase, the log D7.4 value was determined. […]

Human plasma stability = format: in vitro ADME; conditions: 37° C., 4 h, radio-UPLC
Protocol: (§1) Radio-UPLC: For stability studies, an ultra-performance liquid chromatography (UPLC™, Waters) system, equipped with an Acquity UPLC BEH C18 column (1.7 μm, 2.1×50 mm, Waters) and a coincidence detector (FlowStar LB513, Berthold) was used with following solvent system: eluent A was a NaH2PO4/Na2HPO4 buffer (0.05 M, pH 7.4) and eluent B was acetonitrile. A gradient from 0-4.0 min 100%-40% A, at a flow rate of 0.6 ml/min was used.
The radiotracer was tested with regard to its stability in human blood plasma over a period of 4 hours at 37° C. The formulated product (200 μL) was diluted with sodium phosphate buffer (100 μl) and an aliquot (60 μl, 15 MBq) was added to human plasma (500 μL), pre-incubated at 37° C. The mixture was shaken on a Thermomixer compact (Eppendorf) at 37° C. and 500 rpm. After several time points (0, 30, 60, 120, 150 and 240 min) aliquots were taken after tracer addition. Each aliquot (70 μl) was added to ice-cold MeOH (150 μl) to precipitate the proteins. To separate the supernatant from the precipitate, the suspension was centrifuged for 10 min at 13400 rpm (Eppendorf MiniSpin) at room temperature. The supernatant was passed through a microfilter (Sartorius Stedim Biotech GmbH, Minisart RC 25, 0.45 μm) and was analyzed on the radio-UPLC system.

[2] = Stability experiments using liver microsomes (mouse); format: in vitro ADME; conditions: 37° C., 1 h, NADPH regenerating system, radio-UPLC
Excerpt: General: Reagents and solvents were purchased from Sigma-Aldrich Chemie GmbH, Acros Organics or VWR International AG if nothing else is mentioned. All chemicals were used as supplied. Human and mouse (female CD-1) microsomes and the NADPH regenerating systems were purchased from BD biosciences.
as §1
To a mixture of KH2PO4/K2HPO4 buffer (pH 7.4, 0.5 M, 200 μl), NADPH regenerating system A (50 μl), NADPH regenerating system B (10 μl), an aliquot of [^18F]-3′-aza-2′-fluorofolic acid (38 μl, approx. 15 MBq) was added and filled up with water (677 μl) to a volume of 975 μl and preincubated at 37° C. Then, mouse or human liver microsomes (20 mg/ml, 25 μl) were added and incubated at 37° C. After several time points (0, 20, 40 and 60 min) aliquots (100 μl) were drawn and the enzymatical reaction was stopped by purring the solution into ice-cold methanol (200 μl). […] Every time point was performed as a triplicate and analyzed on a radio-UPLC system. […]

Nc1nc2ncc(CNc3ccc(C(=O)N[C@@H](CCC(=O)O)C(=O)O)c([18F])n3)nc2c(=O)[nH]1 [3′-aza-2′-[^18F]fluorofolic acid]
log D7.4 (partition coefficient in n-octanol/PBS) [1]: −4.2±0.1 | logD ([1]; read-out: log D7.4 (partition coefficient in n-octanol/PBS)): -4.2 ± 0.1 | Stability in human blood plasma (Human plasma stability): completely stable | Stability in mouse liver microsomes [2]: completely stable
